Laboratory results from patent US6914045B2, “Glycopeptide antibiotics” (Wyeth Holdings Corporation, priority 2001, dated 2005).
Converted amounts (≈) assume the structure as drawn.

Experiments:
Assay in all cases: in vitro antibacterial evaluation, MIC by broth dilution
Format in all cases: cell-based
Enterococcus sp. = conditions: broth dilution, 18 hours at 35° C.
Procedure, shortened: (§1)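 MIC = lowest antibiotic concentration preventing visible growth; inoculum 5×10^5 CFU/mL; drug range 64-0.06 μg/mL; Muller-Hinton II […]; NCCLS M7-A2 guidance.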

Staphylococcus sp. = conditions: broth dilution, 18 hours at 35° C.; for MIC Staphylococcus aureus (GC 1131): strain GC 1131
Procedure, shortened: as §1

Streptococcus sp. = conditions: broth dilution, 18 hours at 35° C.
Procedure, shortened: as §1

Escherichia coli = conditions: 18 hours at 35° C.

MIC Enterococcus avium (GC 4558) (Enterococcus sp.): 4 µg/mL (≈ 2.74 µM) | MIC Enterococcus faecalis (ATCC 29212) (Enterococcus sp.): 16 µg/mL (≈ 11 µM) | MIC Enterococcus faecalis (GC 2242) (Enterococcus sp.): 8 µg/mL (≈ 5.49 µM) | MIC Enterococcus faecalis (GC 2691) (Enterococcus sp.): 8 µg/mL (≈ 5.49 µM) | MIC Enterococcus faecalis (GC 3059) (Enterococcus sp.): 8 µg/mL (≈ 5.49 µM) | MIC Enterococcus faecalis (GC 4552) (Enterococcus sp.): 16 µg/mL (≈ 11 µM) | MIC Enterococcus faecalis (GC 4553) (Enterococcus sp.): 8 µg/mL (≈ 5.49 µM) | MIC Enterococcus faecalis (GC 4554) (Enterococcus sp.): 16 µg/mL (≈ 11 µM) | MIC Enterococcus faecalis (GC 6189) (Enterococcus sp.): 8 µg/mL (≈ 5.49 µM) | MIC Enterococcus faecium (GC 2243) (Enterococcus sp.): 8 µg/mL (≈ 5.49 µM) | MIC Enterococcus faecium (GC 4556) (Enterococcus sp.): 8 µg/mL (≈ 5.49 µM) | MIC Enterococcus faecium (GC 4557) (Enterococcus sp.): 4 µg/mL (≈ 2.74 µM) | MIC Enterococcus faecalis (ATCC 29212) (Enterococcus sp.; inoculum 5×10^5 CFU/mL, strain ATCC 29212): 16 µg/mL (≈ 11 µM) | MIC Enterococcus faecalis (GC 2242) (Enterococcus sp.; inoculum 5×10^5 CFU/mL, strain GC 2242): 8 µg/mL (≈ 5.49 µM) | MIC Enterococcus faecium (GC 2243) (Enterococcus sp.; inoculum 5×10^5 CFU/mL, strain GC 2243): 8 µg/mL (≈ 5.49 µM) | MIC Enterococcus faecalis (GC 2691) (Enterococcus sp.; inoculum 5×10^5 CFU/mL, strain GC 2691): 8 µg/mL (≈ 5.49 µM) | MIC Enterococcus faecalis (GC 3059) (Enterococcus sp.; inoculum 5×10^5 CFU/mL, strain GC 3059): 8 µg/mL (≈ 5.49 µM) | MIC Enterococcus faecalis (GC 4552) (Enterococcus sp.; inoculum 5×10^5 CFU/mL, strain GC 4552): 16 µg/mL (≈ 11 µM) | MIC Enterococcus faecalis (GC 4553) (Enterococcus sp.; inoculum 5×10^5 CFU/mL, strain GC 4553): 8 µg/mL (≈ 5.49 µM) | MIC Enterococcus faecalis (GC 4554) (Enterococcus sp.; inoculum 5×10^5 CFU/mL, strain GC 4554): 16 µg/mL (≈ 11 µM) | MIC Enterococcus faecium (GC 4556) (Enterococcus sp.; inoculum 5×10^5 CFU/mL, strain GC 4556): 8 µg/mL (≈ 5.49 µM) | MIC Enterococcus faecium (GC 4557) (Enterococcus sp.; inoculum 5×10^5 CFU/mL, strain GC 4557): 4 µg/mL (≈ 2.74 µM) | MIC Enterococcus avium (GC 4558) (Enterococcus sp.; inoculum 5×10^5 CFU/mL, strain GC 4558): 4 µg/mL (≈ 2.74 µM) | MIC Enterococcus faecalis (GC 6189) (Enterococcus sp.; inoculum 5×10^5 CFU/mL, strain GC 6189): 8 µg/mL (≈ 5.49 µM) | MIC Staphylococcus aureus (GC 1131) (Staphylococcus sp.; inoculum 5×10^5 CFU/mL): 8 µg/mL (≈ 5.49 µM) | MIC Staphylococcus aureus (ATCC 29213) (Staphylococcus sp.; strain ATCC 29213): 4 µg/mL (≈ 2.74 µM) | MIC Staphylococcus aureus (GC 1131) (Staphylococcus sp.): 8 µg/mL (≈ 5.49 µM) | MIC Staphylococcus aureus (GC 3051) (Staphylococcus sp.; strain GC 3051): 8 µg/mL (≈ 5.49 µM) | MIC Staphylococcus aureus (GC 3053) (Staphylococcus sp.; strain GC 3053): 8 µg/mL (≈ 5.49 µM) | MIC Staphylococcus aureus (GC 4541) (Staphylococcus sp.; strain GC 4541): 4 µg/mL (≈ 2.74 µM) | MIC Staphylococcus aureus (GC 4542) (Staphylococcus sp.; strain GC 4542): 4 µg/mL (≈ 2.74 µM) | MIC Staphylococcus aureus-SMITH (GC 4543) (Staphylococcus sp.; strain GC 4543): 4 µg/mL (≈ 2.74 µM) | MIC Staphylococcus aureus (GC 4544) (Staphylococcus sp.; strain GC 4544): 8 µg/mL (≈ 5.49 µM) | MIC Staphylococcus aureus (GC 4545) (Staphylococcus sp.; strain GC 4545): 4 µg/mL (≈ 2.74 µM) | MIC Coagulase Negative Staphylococcus (GC 4547) (Staphylococcus sp.; strain GC 4547): 8 µg/mL (≈ 5.49 µM) | MIC Coagulase Negative Staphylococcus (GC 4548) (Staphylococcus sp.; strain GC 4548): 4 µg/mL (≈ 2.74 µM) | MIC Coagulase Negative Staphylococcus (GC 4549) (Staphylococcus sp.; strain GC 4549): 4 µg/mL (≈ 2.74 µM) | MIC Coagulase Negative Staphylococcus (GC 4551) (Staphylococcus sp.; strain GC 4551): 4 µg/mL (≈ 2.74 µM) | MIC Coagulase Negative Staphylococcus (GC 6257) (Staphylococcus sp.; strain GC 6257): 4 µg/mL (≈ 2.74 µM) | MIC Streptococcus agalactiae (GC 4564) (Streptococcus sp.): 2 µg/mL (≈ 1.37 µM) | MIC Streptococcus pneumoniae (ATCC 6301) (Streptococcus sp.): 1 µg/mL (≈ 0.686 µM) | MIC Streptococcus pneumoniae (GC 1894) (Streptococcus sp.): 0.25 µg/mL (≈ 0.172 µM) | MIC Streptococcus pneumoniae (GC 4565) (Streptococcus sp.): 2 µg/mL (≈ 1.37 µM) | MIC Streptococcus pyogenes (GC 4563) (Streptococcus sp.): 2 µg/mL (≈ 1.37 µM) | MIC Streptococcus pneumoniae (ATCC 6301) (Streptococcus sp.; inoculum 5×10^5 CFU/mL, strain ATCC 6301): 1 µg/mL (≈ 0.686 µM) | MIC Streptococcus pneumoniae (GC 1894) (Streptococcus sp.; inoculum 5×10^5 CFU/mL, strain GC 1894): 0.25 µg/mL (≈ 0.172 µM) | MIC Streptococcus pyogenes (GC 4563) (Streptococcus sp.; inoculum 5×10^5 CFU/mL, strain GC 4563): 2 µg/mL (≈ 1.37 µM) | MIC Streptococcus agalactiae (GC 4564) (Streptococcus sp.; inoculum 5×10^5 CFU/mL, strain GC 4564): 2 µg/mL (≈ 1.37 µM) | MIC Streptococcus pneumoniae (GC 4565) (Streptococcus sp.; inoculum 5×10^5 CFU/mL, strain GC 4565): 2 µg/mL (≈ 1.37 µM) | MIC Escherichia coli (ATCC 25922) (Escherichia coli): >64 µg/mL | MIC Escherichia coli (GC 4559) (Escherichia coli): 64 µg/mL (≈ 43.9 µM) | MIC Escherichia coli (GC 4560) (Escherichia coli): 8 µg/mL (≈ 5.49 µM)
SMILES: CC(c1ccccc1)C1NC(=O)CNC(=O)C(CO)NC(=O)C(CC2CNC(=N)N2C2OC(CO)C(O)C(O)C2O)NC(=O)C(CC2CNC(=N)N2)NC(=O)C(Cc2ccc(OC3OC(CO)C(OC4OC5COC(c6ccc(OCc7ccccc7)cc6)OC5C(O)C4O)C(O)C3O)cc2)NC1=O (centres unmarked) [Example 191]
MIC Staphylococcus haemolyticus (GC 4546) (Staphylococcus sp.; strain GC 4546): 4 µg/mL (≈ 2.74 µM)
